Experimental data: ChEMBL document CHEMBL3621092, “Lipid-conjugated Smac analogues” (Bioorg Med Chem Lett, 2015)

Columns and labels:
[1] = Stability in mouse plasma incubated at 37 degC by LC/MS method; format: ADME, cell-free; settings: read-out: Stability
MDA-MB-231 [2] = assay: Growth inhibition of human MDA-MB-231 cells assessed as reduction in cell viability incubated for 48 hrs by PrestoBlue dye based florescence assay; format: functional; settings: MDA-MB-231, 48 h
MDA-MB-231 [3] = assay: Induction of apoptosis in human MDA-MB-231 cells assessed as increase in caspase-3/7 activity incubated for 24 hrs by luminescence based assay; format: functional, cell-based
MDA-MB-231 [4] = assay: Induction of apoptosis in human MDA-MB-231 cells assessed as increase in caspase-3/7 activity incubated for 24 hrs by luminescence based assay relative to control; format: functional

Compound	EC50 (MDA-MB-231 [2])	also measured
CN[C@@H](C)C(=O)N[C@@H](CSCc1ccc(Oc2ccc(CSC[C@H](NC(=O)[C@H](C)NC)C(=O)N3CCC[C@H]3C(=O)NC(c3ccccc3)c3ccccc3)cc2)cc1)C(=O)N1CCC[C@H]1C(=O)NC(c1ccccc1)c1ccccc1	18.4 µM	
CN[C@@H](C)C(=O)N[C@@H](CCCCNC(=O)OCC1c2ccccc2-c2ccccc21)C(=O)N1CCC[C@H]1C(=O)NC(c1ccccc1)c1ccccc1	19 µM	
CN[C@@H](C)C(=O)N[C@@H](CCCCNC(=O)CCCCCCC(=O)NCCCC[C@H](NC(=O)[C@H](C)NC)C(=O)N1CCC[C@H]1C(=O)NC(c1ccccc1)c1ccccc1)C(=O)N1CCC[C@H]1C(=O)NC(c1ccccc1)c1ccccc1	> 100 µM	
CN[C@@H](C)C(=O)N[C@@H](CO)C(=O)N1CCC[C@H]1C(=O)NC(c1ccccc1)c1ccccc1	> 100 µM	
CN[C@@H](C)C(=O)N[C@@H](CSCCS(=O)(=O)CCSC[C@H](NC(=O)[C@H](C)NC)C(=O)N1CCC[C@H]1C(=O)NC(c1ccccc1)c1ccccc1)C(=O)N1CCC[C@H]1C(=O)NC(c1ccccc1)c1ccccc1	52.4 µM	
CN[C@@H](C)C(=O)N[C@@H](CCCCNC(=O)Nc1ccc(NC(=O)NCCCC[C@H](NC(=O)[C@H](C)NC)C(=O)N2CCC[C@H]2C(=O)NC(c2ccccc2)c2ccccc2)cc1)C(=O)N1CCC[C@H]1C(=O)NC(c1ccccc1)c1ccccc1	34.8 µM	
CN[C@@H](C)C(=O)N[C@@H](CS)C(=O)N1CCC[C@H]1C(=O)NC(c1ccccc1)c1ccccc1	> 100 µM	
CN[C@@H](C)C(=O)N[C@@H](CCCCNc1cc(NCCCC[C@H](NC(=O)[C@H](C)NC)C(=O)N2CCC[C@H]2C(=O)NC(c2ccccc2)c2ccccc2)c([N+](=O)[O-])cc1[N+](=O)[O-])C(=O)N1CCC[C@H]1C(=O)NC(c1ccccc1)c1ccccc1		fold change (FC) (MDA-MB-231 [4]): 2.7
CCCCCCCCCCCCCCCC(=O)OCCN(CC(=O)NCCCC[C@H](NC(=O)[C@H](C)NC)C(=O)N1CCC[C@H]1C(=O)NC(c1ccccc1)c1ccccc1)CC(=O)NCCCC[C@H](NC(=O)[C@H](C)NC)C(=O)N1CCC[C@H]1C(=O)NC(c1ccccc1)c1ccccc1	4.3 µM	
CN[C@@H](C)C(=O)N[C@@H](CCCCNC(=O)Nc1ccc(Oc2ccc(NC(=O)NCCCC[C@H](NC(=O)[C@H](C)NC)C(=O)N3CCC[C@H]3C(=O)NC(c3ccccc3)c3ccccc3)cc2)cc1)C(=O)N1CCC[C@H]1C(=O)NC(c1ccccc1)c1ccccc1	14.4 µM	
CN[C@@H](C)C(=O)N[C@@H](CCCCNC(=O)CNCC(=O)NCCCC[C@H](NC(=O)[C@H](C)NC)C(=O)N1CCC[C@H]1C(=O)NC(c1ccccc1)c1ccccc1)C(=O)N1CCC[C@H]1C(=O)NC(c1ccccc1)c1ccccc1	> 100 µM	
CN[C@@H](C)C(=O)N[C@@H](CCCCNC(=N)N)C(=O)N1CCC[C@H]1C(=O)NC(c1ccccc1)c1ccccc1	> 100 µM	
CN[C@@H](C)C(=O)N[C@@H](CSCc1cccc(Cc2cccc(CSC[C@H](NC(=O)[C@H](C)NC)C(=O)N3CCC[C@H]3C(=O)NC(c3ccccc3)c3ccccc3)c2)c1)C(=O)N1CCC[C@H]1C(=O)NC(c1ccccc1)c1ccccc1	> 100 µM	
CCCCCCCCCCCCCCCCCCCCCCCC(=O)NCCCC[C@H](NC(=O)[C@H](C)NC)C(=O)N1CCC[C@H]1C(=O)NC(c1ccccc1)c1ccccc1	> 100 µM	

Now from value to compound, other results behind:

EC50 (MDA-MB-231 [2])	Compound	also measured
4.2 µM	CCCCCCCCCCCCCCCC(=O)N(CC(=O)NCCCC[C@H](NC(=O)[C@H](C)NC)C(=O)N1CCC[C@H]1C(=O)NC(c1ccccc1)c1ccccc1)CC(=O)NCCCC[C@H](NC(=O)[C@H](C)NC)C(=O)N1CCC[C@H]1C(=O)NC(c1ccccc1)c1ccccc1	half-life [1]: < 31 h; Activity (MDA-MB-231 [3]): Dose-dependent effect
> 100 µM	CN[C@@H](C)C(=O)N[C@@H](CSCC(=O)NCCNC(=O)CSC[C@H](NC(=O)[C@H](C)NC)C(=O)N1CCC[C@H]1C(=O)NC(c1ccccc1)c1ccccc1)C(=O)N1CCC[C@H]1C(=O)NC(c1ccccc1)c1ccccc1	
> 100 µM	CN[C@@H](C)C(=O)N[C@@H](CCCCNC(=O)NCCCC[C@H](NC(=O)[C@H](C)NC)C(=O)N1CCC[C@H]1C(=O)NC(c1ccccc1)c1ccccc1)C(=O)N1CCC[C@H]1C(=O)NC(c1ccccc1)c1ccccc1	
9.6 µM	CN[C@@H](C)C(=O)N[C@@H](CSCc1ccc(CSC[C@H](NC(=O)[C@H](C)NC)C(=O)N2CCC[C@H]2C(=O)NC(c2ccccc2)c2ccccc2)cc1)C(=O)N1CCC[C@H]1C(=O)NC(c1ccccc1)c1ccccc1	
9.7 µM	CN[C@@H](C)C(=O)N[C@@H](CCCCNC(=O)O[C@H]1CC[C@@]2(C)C(=CCC3C2CC[C@@]2(C)C3CC[C@@H]2[C@H](C)CCCC(C)C)C1)C(=O)N1CCC[C@H]1C(=O)NC(c1ccccc1)c1ccccc1 (some centres not stated)	
11.3 µM	CCCCCCCCCCCCCCCCSCc1cc(CSC[C@H](NC(=O)[C@H](C)NC)C(=O)N2CCC[C@H]2C(=O)NC(c2ccccc2)c2ccccc2)cc(CSC[C@H](NC(=O)[C@H](C)NC)C(=O)N2CCC[C@H]2C(=O)NC(c2ccccc2)c2ccccc2)c1	
4 µM	CN[C@@H](C)C(=O)N[C@@H](CSCc1ccc(-c2ccc(CSC[C@H](NC(=O)[C@H](C)NC)C(=O)N3CCC[C@H]3C(=O)NC(c3ccccc3)c3ccccc3)cc2)cc1)C(=O)N1CCC[C@H]1C(=O)NC(c1ccccc1)c1ccccc1	fold change (FC) (MDA-MB-231 [4]): 2.7
7.4 µM	CN[C@@H](C)C(=O)N[C@@H](CSCc1cccc(CSC[C@H](NC(=O)[C@H](C)NC)C(=O)N2CCC[C@H]2C(=O)NC(c2ccccc2)c2ccccc2)c1)C(=O)N1CCC[C@H]1C(=O)NC(c1ccccc1)c1ccccc1	
> 100 µM	CN[C@@H](C)C(=O)N[C@@H](CCCCN)C(=O)N1CCC[C@H]1C(=O)NC(c1ccccc1)c1ccccc1	
49.9 µM	CN[C@@H](C)C(=O)N[C@@H](CSSC(C)(C)C)C(=O)N1CCC[C@H]1C(=O)NC(c1ccccc1)c1ccccc1	
